# Results published in ChEMBL document CHEMBL3639225, “Perfluorinated cyclopropyl fused 1,3-oxazin-2-amine compounds as beta-secretase inhibitors and methods of use” (2015).
# Target: Cathepsin D (Homo sapiens, UniProt P07339)
# Test: Fluorescence Resonance Energy Transfer Assay: Recombinant Cat D was expressed in CHO cells. The assay buffer for CathepsinD is 0.05 M citrate pH 3.5, 10% DMSO final, 5 mM CHAPS. The Cat D enzyme (9 nM) is pre-incubated for one hour with inhibitors, typically in about 1 uL of DMSO according to a serial dilution, is added thereto. The assays are effectively started by the addition of different FRET substrates (20 nM for Cat D) and the combination is incubated for one hour. The FRET assay is terminated with by addition of Tris buffer, which raises the pH to neutrality, and the fluorescence is determined. The FRET substrate is a peptide with commercially available fluorophore and quencher, on opposite sides of the BACE cleavage site. The Cat D substrate peptide sequence is based on sequence #1 of Table 1 from Gulnik et al. FEBS Letters v413 p379-384 1997. Proteolytic cleavage of the FRET substrate releases quenching of fluorescence (Cat D excitation 500 nm and emission 580 nm).
# Type: cell-based
# Cathepsin D, sequence (P07339 65-162 limits assumed): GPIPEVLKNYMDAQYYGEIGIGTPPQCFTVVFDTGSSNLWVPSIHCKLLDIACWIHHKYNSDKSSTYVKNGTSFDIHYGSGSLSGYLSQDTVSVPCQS
# Cathepsin D, sequence (P07339 169-412 limits assumed): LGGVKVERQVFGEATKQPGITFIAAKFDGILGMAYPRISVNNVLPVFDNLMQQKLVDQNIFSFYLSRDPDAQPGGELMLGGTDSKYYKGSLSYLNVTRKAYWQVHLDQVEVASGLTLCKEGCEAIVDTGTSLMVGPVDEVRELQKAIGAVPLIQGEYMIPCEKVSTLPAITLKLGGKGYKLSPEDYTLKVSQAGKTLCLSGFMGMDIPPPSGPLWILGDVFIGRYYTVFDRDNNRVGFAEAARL
row,SMILES,IC50 [µM]
1,Cc1cc(NC(=O)c2ccc(Cl)cc2CF)cc([C@@]2(C(F)F)N=C(N)O[C@@H]3C[C@@H]32)c1F,171
2,NC1=N[C@](CF)(c2cc(NC(=O)c3ncc(Cl)cc3CO)ccc2Cl)[C@H]2C[C@H]2O1,533
3,NC1=N[C@](CF)(c2cc(NC(=O)c3ccc(Cl)cn3)cc(F)c2F)[C@H]2C[C@H]2O1,229
4,NC1=N[C@@](c2cc(NC(=O)c3ncc(Br)cn3)ccc2F)(C(F)F)[C@H]2C[C@H]2O1,1020
